Experimental data published in the kinase profiling compilation of Christmann-Franck et al. (2016).

Columns and labels:
Assay in all cases: KINOMEscan competition binding
Conditions in all cases: compound 1.0 µM
LCK (human) = LCK (human) (UniProt P06239)
PRKCD (human) = PRKCD (human) (UniProt Q05655)
MLTK (human) = MLTK (human) (UniProt Q9NYL2)
[1] = test system: PIK3CA (human), P42336 [H1047L]
CAMK2D (human) = CAMK2D (human) (UniProt Q13557)
TESK1 (human) = TESK1 (human) (UniProt Q15569)
CLK2 (human) = CLK2 (human) (UniProt P49760)
PIK3C2B (human) = PIK3C2B (human) (UniProt O00750)
STK16 (human) = STK16 (human) (UniProt O75716)
HIPK3 (human) = HIPK3 (human) (UniProt Q9H422)
EIF2AK1 (human) = EIF2AK1 (human) (UniProt Q9BQI3)
MAPK15 (human) = MAPK15 (human) (UniProt Q8TD08)
MARK3 (human) = MARK3 (human) (UniProt P27448)
CDK4 CCND3 (human) = CDK4 CCND3 (human) (UniProt P11802+P30281)
BMPR1B (human) = BMPR1B (human) (UniProt O00238)
CaMK1 (human) = CaMK1 (human) (UniProt Q14012)
RPS6KB1 (human) = RPS6KB1 (human) (UniProt P23443)
PRKCQ (human) = PRKCQ (human) (UniProt Q04759)
[2] = test system: PIK3CA (human), P42336 [M1043I]
PHKG1 (human) = PHKG1 (human) (UniProt Q16816)
MAPKAPK2 (human) = MAPKAPK2 (human) (UniProt P49137)
CSNK1A1 (human) = CSNK1A1 (human) (UniProt P48729)
DCLK3 (human) = DCLK3 (human) (UniProt Q9C098)
STK36 (human) = STK36 (human) (UniProt Q9NRP7)
AXL (human) = AXL (human) (UniProt P30530)
EPHB4 (human) = EPHB4 (human) (UniProt P54760)
[3] = test system: RET (human), P07949 [M918T]
[4] = test system: PIK3CA (human), P42336 [C420R]
IGF1R (human) = IGF1R (human) (UniProt P08069)
SRPK3 (human) = SRPK3 (human) (UniProt Q9UPE1)
ACVR2B (human) = ACVR2B (human) (UniProt Q13705)
CSNK1G2 (human) = CSNK1G2 (human) (UniProt P78368)
PKN1 (human) = PKN1 (human) (UniProt Q16512)
HCK (human) = HCK (human) (UniProt P08631)
MYLK (human) = MYLK (human) (UniProt Q15746)
MAP3K11 (human) = MAP3K11 (human) (UniProt Q16584)
YES1 (human) = YES1 (human) (UniProt P07947)
WNK1 (human) = WNK1 (human) (UniProt Q9H4A3)
EPHA5 (human) = EPHA5 (human) (UniProt P54756)
Sequence of EPHA5 (human) (P54756 whole entry, looked up): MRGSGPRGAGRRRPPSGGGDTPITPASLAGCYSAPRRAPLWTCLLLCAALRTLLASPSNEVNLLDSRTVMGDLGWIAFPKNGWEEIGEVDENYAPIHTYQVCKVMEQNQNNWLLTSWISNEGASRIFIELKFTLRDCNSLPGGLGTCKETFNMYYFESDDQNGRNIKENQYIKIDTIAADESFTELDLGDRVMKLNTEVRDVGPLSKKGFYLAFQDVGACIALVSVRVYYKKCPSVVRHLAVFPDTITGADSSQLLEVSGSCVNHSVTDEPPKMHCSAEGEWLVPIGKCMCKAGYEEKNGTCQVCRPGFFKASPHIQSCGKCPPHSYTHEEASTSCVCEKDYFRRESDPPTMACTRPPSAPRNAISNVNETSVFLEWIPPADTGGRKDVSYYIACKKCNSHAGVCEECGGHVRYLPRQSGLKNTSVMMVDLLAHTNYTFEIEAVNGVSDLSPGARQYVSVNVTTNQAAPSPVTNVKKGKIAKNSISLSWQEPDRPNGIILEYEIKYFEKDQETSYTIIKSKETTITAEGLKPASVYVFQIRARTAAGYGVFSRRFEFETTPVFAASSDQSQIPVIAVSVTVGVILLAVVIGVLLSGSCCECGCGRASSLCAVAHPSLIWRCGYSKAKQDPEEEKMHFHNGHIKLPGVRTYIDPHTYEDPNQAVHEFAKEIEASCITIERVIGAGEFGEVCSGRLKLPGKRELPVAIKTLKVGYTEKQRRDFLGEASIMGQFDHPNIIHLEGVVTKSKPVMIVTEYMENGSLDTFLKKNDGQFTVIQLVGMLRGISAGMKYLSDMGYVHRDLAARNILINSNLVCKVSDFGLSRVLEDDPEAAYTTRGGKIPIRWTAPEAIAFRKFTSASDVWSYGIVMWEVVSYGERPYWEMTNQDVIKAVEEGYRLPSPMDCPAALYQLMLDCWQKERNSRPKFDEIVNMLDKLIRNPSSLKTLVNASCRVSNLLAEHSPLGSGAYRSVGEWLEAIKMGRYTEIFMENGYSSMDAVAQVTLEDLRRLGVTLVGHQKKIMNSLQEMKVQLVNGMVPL

Sequence of AXL (human) (P30530 whole entry, looked up): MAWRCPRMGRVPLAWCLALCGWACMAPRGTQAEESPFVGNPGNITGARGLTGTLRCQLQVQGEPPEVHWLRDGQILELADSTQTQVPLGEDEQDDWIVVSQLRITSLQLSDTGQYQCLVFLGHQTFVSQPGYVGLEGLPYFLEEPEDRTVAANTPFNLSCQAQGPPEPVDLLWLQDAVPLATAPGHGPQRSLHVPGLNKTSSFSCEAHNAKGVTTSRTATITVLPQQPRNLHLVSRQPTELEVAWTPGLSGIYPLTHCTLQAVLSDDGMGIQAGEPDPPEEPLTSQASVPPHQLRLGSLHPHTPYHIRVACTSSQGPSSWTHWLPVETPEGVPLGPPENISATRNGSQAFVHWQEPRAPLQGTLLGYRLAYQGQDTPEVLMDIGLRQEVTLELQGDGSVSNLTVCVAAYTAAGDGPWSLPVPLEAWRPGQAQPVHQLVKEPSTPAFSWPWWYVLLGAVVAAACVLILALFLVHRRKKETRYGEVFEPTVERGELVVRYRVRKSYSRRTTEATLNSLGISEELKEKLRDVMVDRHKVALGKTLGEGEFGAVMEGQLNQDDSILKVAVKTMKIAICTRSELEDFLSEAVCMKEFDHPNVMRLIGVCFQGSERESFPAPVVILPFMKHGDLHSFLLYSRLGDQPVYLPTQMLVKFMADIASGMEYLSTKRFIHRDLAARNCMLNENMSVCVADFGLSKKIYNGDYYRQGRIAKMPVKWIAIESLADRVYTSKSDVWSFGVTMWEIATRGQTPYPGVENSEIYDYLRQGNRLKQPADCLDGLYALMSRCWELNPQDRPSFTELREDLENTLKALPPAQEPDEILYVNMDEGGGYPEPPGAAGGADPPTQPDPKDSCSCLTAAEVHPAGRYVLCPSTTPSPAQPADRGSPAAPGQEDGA
Sequence of DCLK3 (human) (Q9C098 whole entry, looked up): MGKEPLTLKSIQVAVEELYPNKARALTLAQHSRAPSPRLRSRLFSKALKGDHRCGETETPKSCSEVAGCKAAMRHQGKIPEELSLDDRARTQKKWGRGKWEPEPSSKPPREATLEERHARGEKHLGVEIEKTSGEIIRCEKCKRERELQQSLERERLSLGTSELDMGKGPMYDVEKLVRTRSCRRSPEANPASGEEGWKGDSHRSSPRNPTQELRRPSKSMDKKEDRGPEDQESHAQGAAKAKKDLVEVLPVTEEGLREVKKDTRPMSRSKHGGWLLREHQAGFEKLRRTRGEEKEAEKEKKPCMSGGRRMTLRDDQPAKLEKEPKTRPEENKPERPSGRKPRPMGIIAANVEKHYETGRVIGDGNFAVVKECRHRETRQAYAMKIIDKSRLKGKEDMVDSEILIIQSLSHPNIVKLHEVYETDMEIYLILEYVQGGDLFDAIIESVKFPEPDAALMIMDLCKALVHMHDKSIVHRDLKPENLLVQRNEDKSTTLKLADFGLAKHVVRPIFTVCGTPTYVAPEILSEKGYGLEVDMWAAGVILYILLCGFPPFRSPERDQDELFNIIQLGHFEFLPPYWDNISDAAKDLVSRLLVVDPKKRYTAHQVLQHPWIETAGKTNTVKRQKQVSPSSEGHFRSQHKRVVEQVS
Sequence of YES1 (human) (P07947 whole entry, looked up): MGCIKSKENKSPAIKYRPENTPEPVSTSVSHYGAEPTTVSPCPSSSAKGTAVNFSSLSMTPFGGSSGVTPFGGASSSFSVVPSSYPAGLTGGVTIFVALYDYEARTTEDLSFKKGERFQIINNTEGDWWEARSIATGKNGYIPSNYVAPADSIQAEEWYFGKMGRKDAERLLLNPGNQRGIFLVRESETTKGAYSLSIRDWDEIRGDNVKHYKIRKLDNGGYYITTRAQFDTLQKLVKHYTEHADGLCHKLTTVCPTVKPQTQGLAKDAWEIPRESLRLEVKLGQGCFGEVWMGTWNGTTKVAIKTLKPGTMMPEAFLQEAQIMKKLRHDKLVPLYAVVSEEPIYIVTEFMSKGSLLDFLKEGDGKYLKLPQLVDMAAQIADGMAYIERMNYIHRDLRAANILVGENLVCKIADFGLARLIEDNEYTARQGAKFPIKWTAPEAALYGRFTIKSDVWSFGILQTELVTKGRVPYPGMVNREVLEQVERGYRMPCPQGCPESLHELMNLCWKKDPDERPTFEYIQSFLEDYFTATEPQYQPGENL
Sequence of STK36 (human) (Q9NRP7 whole entry, looked up): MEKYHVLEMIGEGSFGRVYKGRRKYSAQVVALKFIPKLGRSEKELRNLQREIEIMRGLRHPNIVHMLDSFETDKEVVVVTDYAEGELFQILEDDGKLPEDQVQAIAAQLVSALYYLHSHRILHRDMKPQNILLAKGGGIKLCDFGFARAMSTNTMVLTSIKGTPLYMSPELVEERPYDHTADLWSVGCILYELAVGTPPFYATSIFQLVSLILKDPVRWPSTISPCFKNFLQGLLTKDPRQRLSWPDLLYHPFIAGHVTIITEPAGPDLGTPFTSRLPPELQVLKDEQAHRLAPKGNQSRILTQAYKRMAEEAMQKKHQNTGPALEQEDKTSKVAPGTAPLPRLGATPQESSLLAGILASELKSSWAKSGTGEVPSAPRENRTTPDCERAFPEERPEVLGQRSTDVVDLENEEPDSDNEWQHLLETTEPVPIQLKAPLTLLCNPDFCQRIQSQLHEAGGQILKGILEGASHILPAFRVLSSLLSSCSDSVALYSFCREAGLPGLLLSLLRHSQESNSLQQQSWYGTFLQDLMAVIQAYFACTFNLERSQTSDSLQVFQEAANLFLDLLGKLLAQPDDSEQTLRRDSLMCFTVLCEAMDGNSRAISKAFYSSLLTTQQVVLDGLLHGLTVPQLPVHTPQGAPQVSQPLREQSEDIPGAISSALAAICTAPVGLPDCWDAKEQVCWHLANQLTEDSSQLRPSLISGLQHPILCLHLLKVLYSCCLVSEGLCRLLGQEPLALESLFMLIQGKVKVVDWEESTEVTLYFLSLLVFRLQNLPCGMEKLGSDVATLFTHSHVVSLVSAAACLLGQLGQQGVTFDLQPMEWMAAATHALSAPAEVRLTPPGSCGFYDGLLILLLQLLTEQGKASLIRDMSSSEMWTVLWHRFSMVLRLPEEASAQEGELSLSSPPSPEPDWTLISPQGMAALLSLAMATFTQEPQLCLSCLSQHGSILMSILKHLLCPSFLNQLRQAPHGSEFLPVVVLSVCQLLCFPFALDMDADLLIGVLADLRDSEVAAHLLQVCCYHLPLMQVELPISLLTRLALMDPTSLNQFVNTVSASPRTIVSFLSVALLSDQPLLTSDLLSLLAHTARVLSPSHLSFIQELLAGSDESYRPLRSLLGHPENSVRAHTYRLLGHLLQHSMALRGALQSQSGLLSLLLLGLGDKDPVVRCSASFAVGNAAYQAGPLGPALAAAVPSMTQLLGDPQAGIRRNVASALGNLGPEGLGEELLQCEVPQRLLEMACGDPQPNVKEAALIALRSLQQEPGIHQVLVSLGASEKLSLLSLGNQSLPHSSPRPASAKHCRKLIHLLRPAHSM
Sequence of CDK4 CCND3 (human) (P11802 whole entry, looked up): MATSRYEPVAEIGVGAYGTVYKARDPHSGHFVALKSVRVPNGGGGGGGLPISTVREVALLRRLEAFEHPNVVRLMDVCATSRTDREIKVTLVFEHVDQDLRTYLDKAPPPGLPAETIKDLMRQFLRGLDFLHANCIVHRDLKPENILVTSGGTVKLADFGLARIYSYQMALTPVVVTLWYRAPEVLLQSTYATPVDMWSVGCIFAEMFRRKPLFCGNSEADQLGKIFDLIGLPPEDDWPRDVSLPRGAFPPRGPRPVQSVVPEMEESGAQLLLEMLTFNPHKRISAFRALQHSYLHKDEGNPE
Sequence of CDK4 CCND3 (human) (P30281 whole entry, looked up): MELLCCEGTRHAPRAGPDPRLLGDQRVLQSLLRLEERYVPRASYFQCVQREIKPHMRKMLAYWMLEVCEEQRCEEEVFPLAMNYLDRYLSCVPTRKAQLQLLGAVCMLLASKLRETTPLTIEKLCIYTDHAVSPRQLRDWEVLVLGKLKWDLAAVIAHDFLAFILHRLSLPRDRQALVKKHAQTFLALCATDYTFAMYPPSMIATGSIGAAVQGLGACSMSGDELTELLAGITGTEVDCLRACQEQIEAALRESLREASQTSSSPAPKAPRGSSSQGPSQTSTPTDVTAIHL

`CNc1nc(Nc2ccc(C(=O)N3CCOCC3)cc2OC)ncc1Cl` showed a kinase still bound, per cent of control (LCK (human)) of 100%, a kinase still bound, per cent of control (PRKCD (human)) of 49% and a kinase still bound, per cent of control (MLTK (human)) of 100%. The kinase still bound, per cent of control [1] was 100%, the kinase still bound, per cent of control (CAMK2D (human)) was 87% and the kinase still bound, per cent of control (TESK1 (human)) was 100%. It also gave a kinase still bound, per cent of control (CLK2 (human)) of 84%, a kinase still bound, per cent of control (PIK3C2B (human)) of 96% and a kinase still bound, per cent of control (STK16 (human)) of 100%. The kinase still bound, per cent of control (HIPK3 (human)) was 47%, the kinase still bound, per cent of control (EIF2AK1 (human)) was 100% and the kinase still bound, per cent of control (MAPK15 (human)) was 100%. The kinase still bound, per cent of control (MARK3 (human)) was 98%, the residual activity (CDK4 CCND3 (human)) was 36% and the kinase still bound, per cent of control (BMPR1B (human)) was 100%. The kinase still bound, per cent of control (CaMK1 (human)) was 96%, the kinase still bound, per cent of control (RPS6KB1 (human)) was 85% and the kinase still bound, per cent of control (PRKCQ (human)) was 100%. It also gave a kinase still bound, per cent of control [2] of 93%, a kinase still bound, per cent of control (PHKG1 (human)) of 76% and a kinase still bound, per cent of control (MAPKAPK2 (human)) of 95%. The kinase still bound, per cent of control (CSNK1A1 (human)) was 100%, the kinase still bound, per cent of control (DCLK3 (human)) was 100% and the kinase still bound, per cent of control (STK36 (human)) was 100%. For the same molecule, the kinase still bound, per cent of control (AXL (human)) was 97%, the kinase still bound, per cent of control (EPHB4 (human)) was 100% and the kinase still bound, per cent of control [3] was 100%. It also gave a kinase still bound, per cent of control [4] of 85%, a residual activity (IGF1R (human)) of 100% and a kinase still bound, per cent of control (SRPK3 (human)) of 64%. The kinase still bound, per cent of control (ACVR2B (human)) was 65%, the kinase still bound, per cent of control (CSNK1G2 (human)) was 100% and the kinase still bound, per cent of control (PKN1 (human)) was 100%. It also gave a kinase still bound, per cent of control (HCK (human)) of 100%, a residual activity (MYLK (human)) of 75% and a kinase still bound, per cent of control (MAP3K11 (human)) of 100%. The kinase still bound, per cent of control (YES1 (human)) was 100%, the kinase still bound, per cent of control (WNK1 (human)) was 100% and the kinase still bound, per cent of control (EPHA5 (human)) was 100%.
